Source: patent US20240226228A1, “ANTIMICROBIAL PEPTOID HAVING IMPROVED SELECTIVITY AND ANTIMICROBIAL COMPOSITION COMPRISING SAME” (priority 2021, published 2024)
In brackets after ≈: the same amount, converted by molar mass. Read-outs that look alike come from different tables or passages of the source. Where a SMILES comes first, the peptide text is derived from it. [ ]: non-standard residue; d: D form. Gly(N(CH2)2(3-indolyl)) = O=C(O)CNCCc1c[nH]c2ccccc12; Nspe = C[C@H](NCC(=O)O)c1ccccc1; Nlys = NCCCCNCC(=O)O

Tests used:
E. coli ATCC25922 = test system: E. coli ATCC25922
How it was run: (§1)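 Cation-adjusted MHB2 cultures (18 h, subcultured 4 h) adjusted to 2×10^5–5×10^5 CFU/mL in medium with 0.02% BSA and 0.001% acetic acid.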

S. aureus ATCC 25923 = test system: S. aureus ATCC 25923
How it was run: as §1

red blood cells = assay: Hemolysis assay; type: cell-based, Sprague-Dawley mouse
How it was run: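 Peptoid is mixed with 10% (v/v) PBS-washed erythrocytes (male Sprague-Dawley […], 13 weeks) and held 1 h at 37 °C. Hemolysis is calculated from 540 nm absorbance of the supernatant, with PBS as 0% and Triton X-100 as 100%.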

[1] = Table 18, TFA salt vs counter ion-substituted (HCl, AcOH) peptoids
[2] = Tables 11-13, 24 hours at 37° C., maximum concentration 25 μM

| SMILES | MIC E. coli ATCC25922 (E. coli ATCC25922; [1]) [µM] | MIC S. aureus ATCC 25923 (S. aureus ATCC 25923; [1]) [µM] | HC10 (red blood cells) [µM] | HC50 (red blood cells) [µM] | Hmax (100 μM) (red blood cells) [%] | MIC E. coli ATCC25922 (E. coli ATCC25922; [2]) [µM] | MIC S. aureus ATCC 25923 (S. aureus ATCC 25923; [2]) [µM] |
| --- | --- | --- | --- | --- | --- | --- | --- |
| C[C@@H](c1ccccc1)N(CC(N)=O)C(=O)CN(C(=O)CN(CCCCN)C(=O)CN(C(=O)CN(C(=O)CN(CCCCN)C(=O)CN(C(=O)CN(C(=O)CN(CCCCN)C(=O)CN(CCc1c[nH]c2ccccc12)C(=O)CN(CCc1c[nH]c2ccccc12)C(=O)CNCCCCN)[C@@H](C)c1ccccc1)[C@@H](C)c1ccccc1)[C@@H](C)c1ccccc1)[C@@H](C)c1ccccc1)[C@@H](C)c1ccccc1 [Peptoid 14-2] | 3.1 | 1.6 | 14.9 | 51.8 | 100.7 ± 17.2 |  |  |
| C[C@@H](c1ccccc1)N(CC(N)=O)C(=O)CN(C(=O)CN(CCCCN)C(=O)CN(C(=O)CN(CCc1c[nH]c2ccccc12)C(=O)CN(CCCCN)C(=O)CN(CCc1c[nH]c2ccccc12)C(=O)CN(C(=O)CN(CCCCN)C(=O)CN(C(=O)CN(C(=O)CNCCCCN)[C@@H](C)c1ccccc1)[C@@H](C)c1ccccc1)[C@@H](C)c1ccccc1)[C@@H](C)c1ccccc1)[C@@H](C)c1ccccc1 [Peptoid 15-1] | 6.3 | 3.1 | 50.4 | > 100 | 33.4 ± 9.7 |  |  |
| C[C@@H](c1ccccc1)N(CC(N)=O)C(=O)CN(C(=O)CN(CCCCN)C(=O)CN(C(=O)CN(CCc1c[nH]c2ccccc12)C(=O)CN(CCCCN)C(=O)CN(CCc1c[nH]c2ccccc12)C(=O)CN(C(=O)CN(CCCCN)C(=O)CN(C(=O)CN(C(=O)CNCCCCN)[C@@H](C)c1ccccc1)[C@@H](C)c1ccccc1)[C@@H](C)c1ccccc1)[C@@H](C)c1ccccc1)[C@@H](C)c1ccccc1 [Peptoid 15-2] | 6.3 | 3.1 | 39.2 | > 100 | 34.1 ± 1.1 |  |  |
| C[C@@H](c1ccccc1)N(CC(=O)N(CCc1c[nH]c2ccccc12)CC(=O)N(CCCCN)CC(=O)N(CC(=O)N(CC(=O)N(CCCCN)CC(=O)N(CC(=O)N(CC(=O)N(CCCCN)CC(=O)N(CC(=O)N(CCc1c[nH]c2ccccc12)CC(N)=O)[C@@H](C)c1ccccc1)[C@@H](C)c1ccccc1)[C@@H](C)c1ccccc1)[C@@H](C)c1ccccc1)[C@@H](C)c1ccccc1)C(=O)CNCCCCN [Peptoid 16] (H-[Nlys][Nspe][Gly(N(CH2)2(3-indolyl))][Nlys][Nspe][Nspe][Nlys][Nspe][Nspe][Nlys][Nspe][Gly(N(CH2)2(3-indolyl))]-NH2) |  |  | 13.8 | 25.0 | 100.3 ± 1.7 | 6.3 (≈ 12 µg/mL) | 1.6 (≈ 3.04 µg/mL) |
| C[C@@H](c1ccccc1)N(CC(=O)N(CCCCN)CC(=O)N(CC(=O)N(CC(=O)N(CCCCN)CC(=O)N(CC(=O)N(CC(=O)N(CCCCN)CC(=O)N(CC(=O)N(CCc1c[nH]c2ccccc12)CC(N)=O)[C@@H](C)c1ccccc1)[C@@H](C)c1ccccc1)[C@@H](C)c1ccccc1)[C@@H](C)c1ccccc1)[C@@H](C)c1ccccc1)C(=O)CN(CCc1c[nH]c2ccccc12)C(=O)CNCCCCN [Peptoid 17] (H-[Nlys][Gly(N(CH2)2(3-indolyl))][Nspe][Nlys][Nspe][Nspe][Nlys][Nspe][Nspe][Nlys][Nspe][Gly(N(CH2)2(3-indolyl))]-NH2) |  |  | 18.0 | 39.7 | 87.3 ± 6.7 | 6.3 (≈ 12 µg/mL) | 1.6 (≈ 3.04 µg/mL) |
